Measured values reported in US20020169101A1, “Treatment of sexual dysfunction” (priority 1999, published 2002).
Like-named read-outs stand apart in the source and are kept apart here.

Molecular target: T1, human NMB receptor (BB1) (Homo sapiens, UniProt P28336)
T1 construct: expressed in transfected cells; membranes prepared from the cells
Test: BB1 binding assay ([125I][Tyr4]bombesin displacement, CHO-K1 membranes)
Conditions: for Ki: Table 1, human NMB receptor binding affinity, Ki from IC50 by Cheng-Prusoff, read-out: NMB Ki
Description: In the following experiments, measurement of BB1 and BB2 binding was as follows. CHO-K1 cells stably expressing cloned human NMB (for (BB1 assay) and GRP receptors (for BB2 assay) were routinely grown in Ham's F12 culture medium supplemented with 10% foetal calf serum and 2 mM glutamine. For binding experiments, cells were harvested by trypsinization, and stored frozen at −70° C. in Ham's F12 culture medium containing 5% DMSO until required. On the day of use, cells were thawed rapidly, diluted with an excess of culture medium, and centrifuged for 5 minutes at 2000 g. Cells were resuspended in 50 mM Tris-HCl assay buffer (pH 7.4 at 21° C., containing 0.02% BSA, 40 μg/mL bacitracin, 2 μg/mL chymostatin, 4 μg/mL leupeptin, and 2 μM phosphoramidon), counted, and polytronned (setting 5, 10 sec) before centrifuging for 10 minutes at 28,000 g. The final pellet was resuspended in assay buffer to a final cell concentration of 1.5×10^5/mL. For binding assays, […] aliquots of membranes were incubated with [^125I][Tyr^4]bombesin (<0.1 nM) in the presence and absence of test compounds (final assay volume 250 μL) for 60 minutes and 90 minutes for NMB and GRP receptors, respectively. Nonspecific binding was defined by 1 μM bombesin. Assays were terminated by rapid filtration under vacuum onto Whatman GF/C filters presoaked in 0.2% PEI for >2 hours, and washed 50 mM Tris-HCl (pH 6.9 at 21° C.; 6×1 mL). Radioactivity bound was determined using a gamma counter.
All competition data was analysed using nonlinear regression utilizing iterative curve-plotting procedures in Prism® (GraphPad Software Inc., San Diego, USA). IC50 values were corrected to Ki values using the Cheng-Prusoff equation (Cheng Y., Prusoff W. H., Biochem. Pharmacol. 22: 3099-3108, 1973). obtained are listed in Table 1.

[1] = Table 3, N-acyl derivatives of Intermediate III-7

T1 sequence (P28336 whole entry): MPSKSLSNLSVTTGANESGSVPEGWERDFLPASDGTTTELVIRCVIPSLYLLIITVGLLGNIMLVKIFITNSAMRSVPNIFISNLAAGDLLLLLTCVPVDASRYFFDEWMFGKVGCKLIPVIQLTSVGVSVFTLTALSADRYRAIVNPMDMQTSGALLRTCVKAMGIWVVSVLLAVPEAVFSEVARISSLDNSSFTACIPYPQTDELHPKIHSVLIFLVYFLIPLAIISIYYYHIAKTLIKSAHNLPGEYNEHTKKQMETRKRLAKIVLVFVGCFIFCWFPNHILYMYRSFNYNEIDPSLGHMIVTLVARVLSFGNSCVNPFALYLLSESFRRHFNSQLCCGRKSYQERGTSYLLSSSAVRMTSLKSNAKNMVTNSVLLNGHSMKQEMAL

| Structure (SMILES) | IC50 | also measured |
| --- | --- | --- |
| Cn1cnc(S(=O)(=O)N[C@@](C)(Cc2c[nH]c3ccccc23)C(=O)NCC2(c3ccccn3)CCCCC2)c1 [Example 138] | 3.67 µM | – |
| C[C@@](Cc1c[nH]c2ccccc12)(NS(=O)(=O)c1c(Cl)cc(Cl)cc1Cl)C(=O)NCC1(c2ccccn2)CCCCC1 [Example 148] | 0.215 µM | – |
| Cc1cc(C(=O)N[C@@](C)(Cc2c[nH]c3ccccc23)C(=O)NCC2(c3ccccn3)CCCCC2)no1 [Example 62] | – | IC50 [1]: 4.13 µM |
| C[C@@](Cc1c[nH]c2ccccc12)(NS(=O)(=O)c1ccc(S(=O)(=O)c2ccccc2)s1)C(=O)NCC1(c2ccccn2)CCCCC1 [Example 150] | 0.297 µM | – |
| C[C@@](Cc1c[nH]c2ccccc12)(NS(=O)(=O)c1ccccc1C#N)C(=O)NCC1(c2ccccn2)CCCCC1 [Example 134] | 0.408 µM | – |
| C[C@@](Cc1c[nH]c2ccccc12)(NC(=O)c1ccco1)C(=O)NCC1(c2ccccn2)CCCCC1 [Example 60] | – | IC50 [1]: 1.2 µM |
| COC(=O)c1sccc1S(=O)(=O)N[C@@](C)(Cc1c[nH]c2ccccc12)C(=O)NCC1(c2ccccn2)CCCCC1 [Example 140] | 0.167 µM | – |
| Cc1noc(C)c1S(=O)(=O)N[C@@](C)(Cc1c[nH]c2ccccc12)C(=O)NCC1(c2ccccn2)CCCCC1 [Example 136] | 0.515 µM | – |
| C[C@@](Cc1c[nH]c2ccccc12)(Nc1cccc(-c2ccccc2)n1)C(=O)NCC1(c2ccccn2)CCCCC1 [Example 23, (S)-3-(1H-Indol-3-yl)-2-methyl-2-(6-phenyl-pyridin-2-ylamino)-N-(1-pyridin-2-yl-cyclohexylmethyl)-propionamide] | – | Ki: 3.37 µM |
| C[C@@](Cc1c[nH]c2ccccc12)(NS(=O)(=O)c1cccs1)C(=O)NCC1(c2ccccn2)CCCCC1 [Example 119] | 0.232 µM | – |
| C[C@@](Cc1c[nH]c2ccccc12)(NS(=O)(=O)c1ccc(Cl)c(C(F)(F)F)c1)C(=O)NCC1(c2ccccn2)CCCCC1 [Example 166] | 0.627 µM | – |
| C[C@@](Cc1c[nH]c2ccccc12)(NS(=O)(=O)c1cccc(C#N)c1)C(=O)NCC1(c2ccccn2)CCCCC1 [Example 143] | 0.46 µM | – |
| CC(C)(C)c1ccc(S(=O)(=O)N[C@@](C)(Cc2c[nH]c3ccccc23)C(=O)NCC2(c3ccccn3)CCCCC2)cc1 [Example 164] | 0.406 µM | – |
| C[C@@](Cc1c[nH]c2ccccc12)(NS(=O)(=O)c1cccc2cccc([N+](=O)[O-])c12)C(=O)NCC1(c2ccccn2)CCCCC1 [Example 146] | 0.177 µM | – |
| C[C@@](Cc1c[nH]c2ccccc12)(Nc1ccccc1-c1ccccc1)C(=O)NCC1(c2ccccn2)CCCCC1 [Example 21, (S)-2-(Biphenyl-2-ylamino)-3-(1H-indol-3-yl)-2-methyl-N-(1-pyridin-2-yl-cyclohexylmethyl)-propionamide] | – | Ki: 0.824 µM |
| C[C@@](Cc1c[nH]c2ccccc12)(NS(=O)(=O)c1ccc(Cl)c(Cl)c1)C(=O)NCC1(c2ccccn2)CCCCC1 [Example 125] | 0.216 µM | – |
| C[C@@](Cc1c[nH]c2ccccc12)(NS(=O)(=O)c1ccc(-c2ccccn2)s1)C(=O)NCC1(c2ccccn2)CCCCC1 [Example 160] | 0.344 µM | – |
| C[C@@](Cc1c[nH]c2ccccc12)(NS(=O)(=O)c1ccccc1F)C(=O)NCC1(c2ccccn2)CCCCC1 [Example 114] | 0.267 µM | – |
| C[C@@](Cc1c[nH]c2ccccc12)(NS(=O)(=O)c1ccc(C#N)cc1)C(=O)NCC1(c2ccccn2)CCCCC1 [Example 133] | 0.766 µM | – |
| C[C@@](Cc1c[nH]c2ccccc12)(NS(=O)(=O)c1ccc([N+](=O)[O-])cc1[N+](=O)[O-])C(=O)NCC1(c2ccccn2)CCCCC1 [Example 162] | 0.475 µM | – |
| C[C@@](Cc1c[nH]c2ccccc12)(NC(=O)c1ccccn1)C(=O)NCC1(c2ccccn2)CCCCC1 [Example 57] | – | IC50 [1]: 3.71 µM |
| C[C@@](Cc1c[nH]c2ccccc12)(NS(=O)(=O)c1ccc(-c2ccon2)s1)C(=O)NCC1(c2ccccn2)CCCCC1 [Example 141] | 0.534 µM | – |
| Cc1nn(C)c(Cl)c1S(=O)(=O)N[C@@](C)(Cc1c[nH]c2ccccc12)C(=O)NCC1(c2ccccn2)CCCCC1 [Example 135] | 1.25 µM | – |
